Test results: patent US12285431B2, “Treatment of Rb-negative tumors using topoisomerase inhibitors in combination with cyclin dependent kinase 4/6 inhibitors” (G1 Therapeutics, Inc., priority 2014, dated 2025)
Entries after “also recorded” stand apart in the source; their conditions may differ.

Legend:
CDK4/CyclinD1 = CDK4/CyclinD1 (Homo sapiens, UniProt P11802); assay: CDK4/cyclinD1 kinase assay (Nanosyn, Caliper microfluidic kinase detection); assay type: biochemical; details: read-out: CDK4/CycD1 IC50
CDK4/CyclinD1, sequence (P11802 whole entry, species assumed): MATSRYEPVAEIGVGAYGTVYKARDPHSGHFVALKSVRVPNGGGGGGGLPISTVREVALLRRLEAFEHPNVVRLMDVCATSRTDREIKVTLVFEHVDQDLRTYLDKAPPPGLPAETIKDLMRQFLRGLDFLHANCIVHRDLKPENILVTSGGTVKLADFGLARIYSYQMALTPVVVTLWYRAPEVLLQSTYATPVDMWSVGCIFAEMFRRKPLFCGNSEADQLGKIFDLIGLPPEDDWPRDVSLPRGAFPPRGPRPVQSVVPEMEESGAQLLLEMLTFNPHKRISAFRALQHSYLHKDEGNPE
CDK4/CyclinD1, sequence (P24385 whole entry partner, species assumed): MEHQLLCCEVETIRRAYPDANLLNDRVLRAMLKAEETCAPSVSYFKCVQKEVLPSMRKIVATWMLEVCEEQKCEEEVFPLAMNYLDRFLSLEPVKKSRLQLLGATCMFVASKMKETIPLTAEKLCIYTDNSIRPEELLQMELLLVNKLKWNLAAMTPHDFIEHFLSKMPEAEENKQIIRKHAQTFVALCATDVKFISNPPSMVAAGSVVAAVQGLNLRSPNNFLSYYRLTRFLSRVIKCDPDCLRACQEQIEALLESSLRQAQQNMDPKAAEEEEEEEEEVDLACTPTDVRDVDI

CDK2/CyclinE = CDK2/CyclinE (Homo sapiens, UniProt P24941); assay: CDK2/cyclinE kinase assay (Nanosyn, Caliper); assay type: biochemical; details: Table 2
HS68 cells = assay: G1 arrest (cellular G1 and S-phase) assay, propidium iodide flow cytometry; assay type: cell-based, human
Experimental: HS68 cells (human skin fibroblast cell line (Rb-positive)) were stained with propidium iodide staining solution and run on Dako Cyan Flow Cytometer. The fraction of cells in G0-G1 DNA cell cycle versus the fraction in S-phase DNA cell cycle was determined using FlowJo 7.2.2 analysis.
The compounds listed in Table 1 were tested for their ability to arrest HS68 cells at the G1 phase of the cell cycle.

[1] = tested on: 456 (395 non-mutant) kinases; assay: DiscoveRx KINOMEscan profiling; assay type: binding; details: single concentration 1000 nM
[2] = tested on: MCF7 (breast adenocarcinoma, Rb-positive); assay: Cellular proliferation assay (CellTiter-Glo), MCF7; assay type: cell-based; details: Homo sapiens, MCF7, 144 h, cell viability after six days
Experimental: (§1) Further cellular proliferation assays were conducted using the following cancer cell lines: MCF7 (breast adenocarcinoma—Rb-positive), ZR-75-1 (breast ductal carcinoma—Rb-positive), H69 (human small cell lung cancer—Rb-negative) cells, or A2058 (human metastatic melanoma cells—Rb-negative). These cells were seeded in Costar (Tewksbury, Massachusetts) 3093 96 well tissue culture treated white walled/clear bottom plates. Cells were treated with the compounds of Table 1 as nine point dose response dilution series from 10 uM to 1 nM. Cells were exposed to compounds and then cell viability was determined after either four (H69) or six (MCF7, ZR75-1, A2058) days as indicated using the CellTiter-Glo® luminescent cell viability assay (CTG; Promega, Madison, Wisconsin, United States of America) following the manufacturer's recommendations. Plates were read on BioTek (Winooski, Vermont) Syngergy2 multi-mode plate reader. The Relative Light Units (RLU) were plotted as a result of variable molar concentration and data was analyzed using Graphpad (LaJolla, California) Prism 5 statistical software to determine the EC50 for each compound.

[3] = tested on: ZR-75-1 (breast ductal carcinoma, Rb-positive); assay: Cellular proliferation assay (CellTiter-Glo), ZR-75-1; assay type: cell-based; details: Homo sapiens, ZR-75-1, 144 h, cell viability after six days, read-out: ZR75-1 Cellular EC50
Experimental: as §1

[4] = tested on: H69 (human small cell lung cancer, Rb-negative) cells; assay: Cellular proliferation assay (CellTiter-Glo), H69; assay type: cell-based; details: NCI-H69, 96 h, cell viability after four days
Experimental: as §1

[5] = tested on: A2058 (human metastatic melanoma cells, Rb-negative); assay: Cellular proliferation assay (CellTiter-Glo), A2058; assay type: cell-based; details: A2058, 144 h, cell viability after six days
Experimental: as §1

[6] = Mouse pharmacokinetics (oral gavage / intravenous); assay type: in vivo, mice; details: for AUC 0-inf (uM * h) i.v.: 10 mg/kg intravenous injection; for AUC (uM * h) p.o. / Cmax / Tmax (h) p.o. / t1/2 (h) p.o.: 30 mg/kg oral gavage; for t1/2 (h) p.o.: 30 mg/kg
[7] = tested on: tHS68 cells (Rb-positive); assay: Cell cycle arrest screen, tHS68; assay type: cell-based
Text: (§2) To test the ability of the disclosed CDK4/6 inhibitors to induce a clean G1-arrest, a cell based screening method was used consisting of two Rb-positive (tHS68 and WM2664) and one Rb-negative (A2058) cell line. […] At the conclusion of the experiment, cells were harvested, fixed, and stained with propidium iodide (a DNA intercalator), which fluoresces strongly red (emission maximum 637 nm) when excited by 488 nm light. Samples were run on Dako Cyan flow cytometer and >10,000 events were collected for each sample. Data were analyzed using FlowJo 2.2 software developed by TreeStar, Inc.

[8] = tested on: WM2664 cells (Rb-positive); assay: Cell cycle arrest screen, WM2664; assay type: cell-based; details: 24 hours
Text: as §2

[9] = tested on: A2058 cells (Rb-negative); assay: Cell cycle arrest screen, A2058; assay type: cell-based; details: 24 hours
Text: as §2

[10] = tested on: Rb phosphorylation (Ser780, Ser807/811) in tHS68 cells; assay: Rb phosphorylation western blot, tHS68; assay type: cell-based; details: tHS68, 300 nM, 4, 8, 16 and 24 hours
Experimental: (§3) The CDK4/6-cyclin D complex is essential for progression from G1 to the S-phase of the DNA cell cycle. This complex phosphorylates the retinoblastoma tumor suppressor protein (Rb). […] Samples were lysed and protein was assayed by western blot analysis. Rb phosphorylation was measured at two sites targeted by the CDK4/6-cyclin D complex, Ser780 and Ser807/811 using species specific antibodies.

[11] = tested on: Rb phosphorylation (Ser780, Ser807/811) in WM2664 cells; assay: Rb phosphorylation western blot, WM2664; assay type: cell-based; details: WM2664, 300 nM, 4, 8, 16 and 24 hours
Experimental: as §3

[12] = tested on: Rb phosphorylation (Ser780, Ser807/811) in A2058 cells; assay: Rb phosphorylation western blot, A2058; assay type: cell-based; details: A2058, 300 nM, 4, 8, 16 and 24 hours
Experimental: as §3

[13] = tested on: NCI-H69 SCLC xenograft (Rb-negative); assay: NCI-H69 SCLC xenograft model, Example 156; assay type: in vivo, mice; details: Compound T 100 mg/kg po qd×5×4; carboplatin 40 mg/kg and etoposide 4 mg/kg ip twice per week for 3 weeks; topotecan 0.6 mg/kg ip once daily for 5 days; FIG. 11
[14] = tested on: NCI-H69 SCLC xenograft (Rb-negative); assay type: in vivo
Text: An Rb-negative model of small cell lung cancer was used in the following example. Briefly, xenografts of National Cancer Institute (NCI) […] cells were grafted onto the mice (Athymic Nude (Crl:NU(NCr)-Foxn1^nu); 6-12 week old females) using the South Texas Accelerated Research Therapeutics (START) Cell-Based Xenograft (START-CBX) tumor model. H69 cells are human small cell lung cancer cells and are Rb-negative.
Data collected from the efficacy study included animal weights, observations and tumor dimensions. This information was used to determine agent tolerability based on weight change and gross physiologic changes and anticancer activity based on tumor growth delay or regression. The designated endpoint for this study was an individual tumor volume of 1 cm^3 or 60 days following treatment initiation.
Tumor fragments from NCI-H69 were harvested from host animals and implanted into immune-deficient mice and the study initiated at a mean tumor volume of approximately 150-250 mm^3.
Additional details of the study are outlined in Table 6 below. […] Tumor size was examined twice per week and the endpoint for this study was Day 59.

[15] = tested on: small cell lung cancer cell lines; details: Hamilton et al., cited from earlier work
CDK6/CycD3 = CDK6/CycD3 (Homo sapiens, UniProt Q00534); assay: CDK6/CycD3 kinase assay; details: read-out: CDK6/CycD3 IC50; Table 3
CDK6/CycD3, sequence (Q00534 whole entry, species assumed): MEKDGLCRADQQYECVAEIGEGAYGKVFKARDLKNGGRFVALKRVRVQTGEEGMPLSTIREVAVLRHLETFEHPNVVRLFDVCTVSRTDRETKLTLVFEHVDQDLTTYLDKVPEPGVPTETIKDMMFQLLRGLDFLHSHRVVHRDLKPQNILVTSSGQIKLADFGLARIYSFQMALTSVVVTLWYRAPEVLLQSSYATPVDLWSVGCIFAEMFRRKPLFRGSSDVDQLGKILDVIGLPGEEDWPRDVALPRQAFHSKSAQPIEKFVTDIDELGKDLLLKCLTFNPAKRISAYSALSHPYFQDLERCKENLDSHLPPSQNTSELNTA
CDK6/CycD3, sequence (P30281 whole entry partner, species assumed): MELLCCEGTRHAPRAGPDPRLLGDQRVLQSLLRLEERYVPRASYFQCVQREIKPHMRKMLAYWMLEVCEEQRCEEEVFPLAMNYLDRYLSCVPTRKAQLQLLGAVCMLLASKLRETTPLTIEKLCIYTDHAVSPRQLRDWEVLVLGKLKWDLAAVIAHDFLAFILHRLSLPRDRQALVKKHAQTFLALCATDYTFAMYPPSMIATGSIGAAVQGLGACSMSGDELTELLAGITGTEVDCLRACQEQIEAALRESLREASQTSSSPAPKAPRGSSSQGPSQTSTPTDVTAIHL

[16] = Group 2: Compound T 100 mg/kg PO qdx5x4 and topotecan vehicle

## CCN(CC)C1CCN(c2ccc(Nc3ncc4cc5n(c4n3)C3(CCCCC3)CNC5=O)nc2)C1 (stereo not drawn) [UU]
CDK4/CyclinD1
  IC50: 7.3 nM
CDK2/CyclinE
  Fold Selectivity (CDK2/CycE/CDK4): 542
CDK2/CyclinE; ATP 100 μM, 1 hr, read-out: CDK2/CycE IC50
  IC50: 3960 nM
HS68 cells; HS68 cells
  EC50: 300 nM

## CN1CCN(c2ccc(Nc3ncc4cc5n(c4n3)C3(CCCCC3)CNC5=O)nc2)CC1 [Compound T]
[1]
  number of 395 non-mutant kinases inhibited, inhibitory threshold 65%: 92
  number of 395 non-mutant kinases inhibited, inhibitory threshold 90%: 31
  number of 395 non-mutant kinases inhibited, inhibitory threshold 99%: 6
  share of 395 non-mutant kinases inhibited, inhibitory threshold 65%: 23.3%
  share of 395 non-mutant kinases inhibited, inhibitory threshold 90%: 7.8%
  share of 395 non-mutant kinases inhibited, inhibitory threshold 99%: 1.5%
HS68 cells; Homo sapiens, Hs68, HS68 cells
  EC50: 100 nM
[2]
  EC50: 49 nM
[3]
  EC50: 36 nM
[4]
  EC50: > 3000 nM
[5]
  EC50: > 3000 nM
[6]
  AUC 0-inf (uM * h) i.v.: 1.3 µM·h
  AUC (uM * h) p.o.: 2.9 µM·h
  Cmax: 2.5 µM
  Tmax (h) p.o.: 1 h
  t1/2 (h) p.o.: 5 h
[7]; 300 nM, 24 hours
  cell cycle distribution at 300 nM (in words): loss of the S-phase peak
[7]; 24 hours treatment, read-out: G1 cell cycle arrest EC50
  EC50: 80 nM
[7]; 24 hours, 28% at baseline
  S-phase fraction at the highest concentration shown: 6%
[7]; 24 hours, FIG. 9A
  cell cycle distribution, increasing concentrations (in words): robust G1 cell cycle arrest; also recorded: clean G1 arrest accompanied by a corresponding decrease in the number of cells in S-phase
[8]
  cell cycle distribution at 300 nM (in words): loss of the S-phase peak
[9]
  cell cycle distribution at 300 nM (in words): does not cause a loss of the S-phase peak
[10]
  Rb phosphorylation at Ser780 and Ser807/811 (in words): blocks Rb phosphorylation in Rb-positive cell lines by 16 hours post exposure; also recorded: reduced Rb-phosphorylation starting 16 hours after treatment
[11]
  Rb phosphorylation at Ser780 and Ser807/811 (in words): blocks Rb phosphorylation in Rb-positive cell lines by 16 hours post exposure; also recorded: reduced Rb-phosphorylation starting 16 hours after treatment
[12]
  Rb phosphorylation at Ser780 and Ser807/811 (in words): but not in the Rb-negative cell line (A2058)
[13]
  effect on tumor growth / tumor size (in words): very little effect of slowing tumor growth
[14]; Compound T alone 100 mg/kg, topotecan 0.6 mg/kg, combination with each Compound T dose (100, 50 or 10 mg/kg), FIG. 16
  activity toward NCI-H69 xenografts / tumor volume (in words): inactive
[14]; Compound T alone or thirty minutes before topotecan, FIG. 13
  tolerability: weight loss or toxicity (in words): well tolerated with no additive weight loss or toxicity
[14]; [16]
  CR (tumor volume < 15 mm^3): 0
  LTS (individual tumor volume < volume endpoint at study time endpoint): 0
  MTTE ± SD (timepoint in days to reach designated tumor volume or time endpoint): 14 ± 4 days
  PR (%) (tumor volume ≥ 50% regression versus Day 0): 0%
  T-C (difference in days between MTTE of treatment and control groups): <0 days
  TFS (complete responder at study endpoint): 0

## Cn1cnc2c(NCc3ccccc3)nc(NCCO)nc21 [olomoucine]
[15]; Journal of Cancer Therapy (2013)
  cytotoxic effect in combination with topotecan (in words): synergistic cytotoxic effect
[15]; Molecules (2014), rubitecan, 9AC, topotecan, SN38, CPT109
  cytotoxic / chemosensitizing effect in combination with various camptothecin derivatives (in words): synergistic cytotoxic effect

## CC(C)N1CCN(c2ccc(Nc3ncc4cc5n(c4n3)C3(CCCCC3)CNC5=O)nc2)CC1 [Compound GG]
HS68 cells; Homo sapiens, Hs68, HS68 cells
  EC50: 80 nM
[2]
  EC50: 52 nM
[3]
  EC50: 62 nM
[4]
  EC50: 2920 nM
[5]
  EC50: 2690 nM
[6]
  AUC 0-inf (uM * h) i.v.: 1.1 µM·h
  AUC (uM * h) p.o.: 1.9 µM·h
  Cmax: 1.9 µM
  Tmax (h) p.o.: 1 h
  t1/2 (h) p.o.: 3.5 h
CDK6/CycD3
  IC50: 4.7 nM
